From patent publication US10272081B2, “SHIP1 modulators and methods related thereto” (Aquinox Pharmaceuticals (Canada) Inc., priority 2013, dated 2019)

Tests used:
His-hSHIP1 enzyme = target: T1, His-hSHIP1 enzyme (Homo sapiens, UniProt Q92835); test: His-hSHIP1 activity, approach 1 (phosphate release from IP4, Biomol Green); assay type: biochemical; details: activation of His-hSHIP1; IP4 50 μM; test compound 0-300 μM; no asterisk in Table 2
T1 construct: His
T1 sequence (Q92835 1-1189): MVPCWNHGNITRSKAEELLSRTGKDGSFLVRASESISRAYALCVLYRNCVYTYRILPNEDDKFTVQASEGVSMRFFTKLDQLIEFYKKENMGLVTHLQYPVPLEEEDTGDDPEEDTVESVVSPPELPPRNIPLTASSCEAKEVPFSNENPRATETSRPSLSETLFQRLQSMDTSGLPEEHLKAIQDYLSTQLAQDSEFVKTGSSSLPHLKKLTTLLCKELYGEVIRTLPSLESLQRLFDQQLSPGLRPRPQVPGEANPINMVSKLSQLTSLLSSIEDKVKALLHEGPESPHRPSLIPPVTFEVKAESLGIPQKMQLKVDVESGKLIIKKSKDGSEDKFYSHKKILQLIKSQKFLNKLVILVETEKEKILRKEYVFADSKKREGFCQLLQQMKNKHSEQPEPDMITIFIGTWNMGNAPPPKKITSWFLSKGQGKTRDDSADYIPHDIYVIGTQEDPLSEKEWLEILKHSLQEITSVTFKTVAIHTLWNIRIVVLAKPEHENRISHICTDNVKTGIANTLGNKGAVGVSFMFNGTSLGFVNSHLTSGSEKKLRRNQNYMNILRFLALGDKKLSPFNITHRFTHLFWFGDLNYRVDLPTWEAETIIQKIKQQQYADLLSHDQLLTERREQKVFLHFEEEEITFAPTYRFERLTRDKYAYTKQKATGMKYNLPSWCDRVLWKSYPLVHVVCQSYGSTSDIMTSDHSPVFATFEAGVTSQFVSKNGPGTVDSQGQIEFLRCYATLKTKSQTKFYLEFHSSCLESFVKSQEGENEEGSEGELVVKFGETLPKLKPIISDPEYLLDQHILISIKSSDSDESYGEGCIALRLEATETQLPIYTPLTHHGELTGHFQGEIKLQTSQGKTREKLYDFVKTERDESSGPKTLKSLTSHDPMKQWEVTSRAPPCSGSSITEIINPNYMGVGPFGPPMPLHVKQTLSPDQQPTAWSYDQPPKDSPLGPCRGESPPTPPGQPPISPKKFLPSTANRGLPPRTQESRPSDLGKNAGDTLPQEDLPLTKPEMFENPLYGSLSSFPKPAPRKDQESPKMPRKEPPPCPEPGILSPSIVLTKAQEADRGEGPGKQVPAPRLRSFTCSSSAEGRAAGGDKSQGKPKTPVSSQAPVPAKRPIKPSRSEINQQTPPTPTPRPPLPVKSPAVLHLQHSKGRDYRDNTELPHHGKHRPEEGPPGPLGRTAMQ
Procedure, shortened: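 Compounds at 0–300 μM final, carried in 10% ethanol, were incubated with 5-20 ng His-hSHIP1 and 50 μM IP4. Buffer was Tris pH 7.5 with 10 mM MgCl2 and Tween 20, 15 min at 37° C. Released phosphate was measured with Biomol Green as absorbance at 650 nm.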

[1] = system: carrageenan paw edema in mice; test: Carrageenan paw edema in mice; assay type: in vivo; details: 30 mg/kg orally one hour before carrageenan, 4 hours after carrageenan
Procedure: The activity of representative compounds on carrageenan paw edema in mice was evaluated according to the procedures disclosed by Winter et al., Proc Soc Exp Biol Med 111, 544-547, 1962 which is incorporated herein by reference in its entirety.
To induce edema in the paw, test compounds were administered orally one hour before intraplantar injection of the right hind paw with carrageenan (50 μL of 1% suspension). Hind paw edema, as a measure of inflammation, was recorded using a plethysmometer (Ugo Basile, Italy) 4 hours after λ-carrageenan administration.

[2] = system: Akt phosphorylation in Jurkat (SHIP1−) lymphocytes; test: Akt phosphorylation in lymphocytes, Jurkat (Western blot); assay type: cell-based; design: key: +: inhibits Akt phosphorylation at 10 μM; −: no effect on Akt phosphorylation at 10 μM; details: 10 μM; IGF-1 stimulated Jurkat (PTEN−/SHIP1−) cells
Procedure: Jurkat (PTEN−/SHIP1−) or Molt-4 (PTEN−/SHIP1+) cells are starved in serum free RPMI for overnight. In a 15 mL conical tube, 2-3 million serum starved cells (1 million cells per mL) are treated with various concentrations of test compound (0.1, 1, or 10 μM final in 0.1% DMSO) for 30 min at 37° C. followed by stimulation with 100 ng/mL of IGF-1 for 1 hour at 37° C. After stimulation, cells are washed once with ice-cold DPBS and lysed with Lysis Buffer (20 mM Tris-HCl, pH 7.5, 140 mM NaCl, 1% NP-40, Complete Mini Protease Inhibitor Cocktail, 10 mM NaF, 1 mM Na3VO4, 1 mM β-glycerolphosphate) on ice for 30 min with vortexing every 10 min. Samples are then centrifuged at 13,000 rpm for 20 min, and supernatants are collected as total cell lysate samples. Protein concentration is determined using bicinchonic acid assay, and about 15 μg of total protein from each sample is loaded and separated on a 4-12% Tris-Glycine gel. After SDS-PAGE, proteins are transferred from the gel to a nitrocellulose membrane. The membrane is blocked in 5% BSA in PBS containing 0.1% Tween-20 (PBS-T) for 1 hour at room temperature before probing with primary antibodies for overnight at 4° C. The following antibodies are used: mouse anti-SHIP1 (1:500 dilution; Santa Cruz, Calif., USA), rabbit anti-phospho-Akt(Ser473) (1:1000 dilution; Cell Signaling Technologies, MA, USA), rabbit anti-Akt (1:1000; Cell Signaling Technologies, MA, USA), and rabbit anti-actin (1:2000; Cell Signaling Technologies, MA, USA). The membrane is then incubated with goat anti-rabbit or anti-mouse secondary antibodies (1:3000) for 1 hour at room temperature. Target proteins on the membrane are detected with ECL solution and exposed on a film.

[3] = system: passive cutaneous anaphylaxis in mice; test: Passive cutaneous anaphylaxis in mice; assay type: in vivo; details: oral gavage, doses less than 20 mg/kg
Procedure: The activity of representative compounds on passive cutaneous anaphylaxis in mice was evaluated according to the procedures disclosed by Ovary, J Immunol 81, 355-357, 1958 and Halpern et al., Br J Pharmacol Chemother 20, 389-398, 1963, both of which are incorporated herein by reference in their entirety.
To induce a passive cutaneous anaphylaxis, mice undergo intradermal ear inoculation on their right ear with 25 ng in 20 μL of anti-DNP-IgE. The left ears are untreated and serve as negative controls. Twenty-four hours after inoculation, all mice are administered test compound by oral gavage (PO). Sixty minutes after oral administration, mice are given a tail vein injection of 2% Evan's Blue (0.2 μm filtered, in 200 μL saline) followed by a second tail IV injection of 100 μg DNP-HSA (in 200 μL). Sixty minutes following the DNP-HAS injection, mice are euthanized using CO2 inhalation. Subsequently, ear biopsies are performed by taking four millimetre punches from both ears, which then undergo Evan's Blue extraction using formamide incubation in 96 well plates. Eighty μL of eluents are transferred to flat-bottom 96-well plates and absorbance read using SpectraMax M5 spectrophotometer (Molecular Devices, Sunnyvale, Calif., USA) at 620 nm. Background readings from all samples are taken at 740 nm and subtracted from the 620 nm readings. Data are reported as OD.

Row | Scoring, Approach 1 (% increase relative to background) (His-hSHIP1 enzyme) | Compound | inhibition of carrageenan-induced paw edema [1] | Jurkat (SHIP1 −), Akt phosphorylation [2] | % Inhibition of allergen-induced passive cutaneous anaphylaxis [3]
1 | +++ (x ≥65) | C[C@H]1CC[C@H]2C(C)(C)CCC[C@]2(C)[C@H]1CC(=O)c1cc(O)cc(O)c1 [Compound No. 48, 2-[(1S,2S,4aS,8aR)-2,5,5,8a-tetramethyl-decahydronaphthalen-1-yl]-1-(3,5-dihydroxyphenyl)ethan-1-one] | 21% |  | 
2 | +++ (x ≥65) | CC(=O)N[C@@H]1C[C@H]2C(C)(C)CCC[C@]2(C)[C@@H](C(=O)c2cc(O)cc(O)c2)[C@@H]1C [Compound No. 57, N-[(2R,3S,4S,4aS,8aS)-4-[(3,5-dihydroxyphenyl)carbonyl]-3,4a,8,8-tetramethyl-decahydronaphthalen-2-yl]acetamide] |  | − | +++ (>50% inhibition)
